Source: ChEMBL document CHEMBL5357003, “A Simple Chiral 1H NMR Method for the Discrimination of (R)- and (S)-Cannabichromene in Complex Natural Mixtures and Their Effects on TRPA1 Activity” (J Nat Prod, 2024)
Values after ≈ are worked out from the molar mass of the structure shown. Active and inactive are the calls of the source. No cut-off for these calls is given here.

What was measured:
[1] = Cytotoxicity against human T24 cells by XTT assay; type: toxicity, cell-based, T-24
[2] = target: Transient receptor potential cation channel subfamily A member 1 (Homo sapiens) (UniProt O75762); assay: Agonist activity at human TRPA1 expressed in HEK293E cells assessed as calcium mobilization measured every 2 sec for 150 sec by microplate reader analysis; type: cell-based; details: filed as agonist
Sequence of Transient receptor potential cation channel subfamily A member 1 (Homo sapiens) (O75762 whole entry): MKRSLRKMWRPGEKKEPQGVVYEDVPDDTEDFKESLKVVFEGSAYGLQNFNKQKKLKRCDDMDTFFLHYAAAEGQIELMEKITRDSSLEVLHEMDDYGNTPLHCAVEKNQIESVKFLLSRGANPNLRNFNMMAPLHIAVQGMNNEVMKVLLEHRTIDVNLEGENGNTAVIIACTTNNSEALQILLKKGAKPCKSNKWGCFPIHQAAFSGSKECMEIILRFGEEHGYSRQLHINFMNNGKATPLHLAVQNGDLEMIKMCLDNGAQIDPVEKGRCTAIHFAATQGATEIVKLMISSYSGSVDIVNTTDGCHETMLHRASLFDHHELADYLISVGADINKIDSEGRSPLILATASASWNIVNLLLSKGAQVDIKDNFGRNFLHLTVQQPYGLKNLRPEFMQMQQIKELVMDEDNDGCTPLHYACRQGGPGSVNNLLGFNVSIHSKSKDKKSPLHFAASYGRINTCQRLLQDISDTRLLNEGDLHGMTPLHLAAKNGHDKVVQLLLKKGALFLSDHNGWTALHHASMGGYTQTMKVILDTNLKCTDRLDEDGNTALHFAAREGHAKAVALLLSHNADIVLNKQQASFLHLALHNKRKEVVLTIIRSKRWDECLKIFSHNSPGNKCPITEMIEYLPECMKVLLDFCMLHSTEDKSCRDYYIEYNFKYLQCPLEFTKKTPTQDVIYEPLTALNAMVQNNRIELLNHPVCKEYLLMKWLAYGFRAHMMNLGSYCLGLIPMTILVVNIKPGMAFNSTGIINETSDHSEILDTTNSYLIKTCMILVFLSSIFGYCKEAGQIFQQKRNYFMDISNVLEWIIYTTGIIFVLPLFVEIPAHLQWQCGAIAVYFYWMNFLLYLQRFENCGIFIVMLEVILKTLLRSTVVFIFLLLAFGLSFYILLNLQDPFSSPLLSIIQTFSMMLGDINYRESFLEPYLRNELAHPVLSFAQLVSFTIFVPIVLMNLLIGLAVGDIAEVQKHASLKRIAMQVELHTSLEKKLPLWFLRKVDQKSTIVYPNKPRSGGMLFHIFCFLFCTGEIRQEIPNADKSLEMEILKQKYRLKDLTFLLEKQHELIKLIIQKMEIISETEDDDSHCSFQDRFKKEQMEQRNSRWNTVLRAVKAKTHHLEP

[3] = target: Transient receptor potential cation channel subfamily A member 1 (Rattus norvegicus) (UniProt Q6RI86); assay: Agonist activity at rat TRPA1 expressed in HEK293E cells assessed as calcium mobilization measured every 2 sec for 150 sec by microplate reader analysis; type: cell-based; details: filed as agonist
Sequence of Transient receptor potential cation channel subfamily A member 1 (Rattus norvegicus) (Q6RI86 whole entry): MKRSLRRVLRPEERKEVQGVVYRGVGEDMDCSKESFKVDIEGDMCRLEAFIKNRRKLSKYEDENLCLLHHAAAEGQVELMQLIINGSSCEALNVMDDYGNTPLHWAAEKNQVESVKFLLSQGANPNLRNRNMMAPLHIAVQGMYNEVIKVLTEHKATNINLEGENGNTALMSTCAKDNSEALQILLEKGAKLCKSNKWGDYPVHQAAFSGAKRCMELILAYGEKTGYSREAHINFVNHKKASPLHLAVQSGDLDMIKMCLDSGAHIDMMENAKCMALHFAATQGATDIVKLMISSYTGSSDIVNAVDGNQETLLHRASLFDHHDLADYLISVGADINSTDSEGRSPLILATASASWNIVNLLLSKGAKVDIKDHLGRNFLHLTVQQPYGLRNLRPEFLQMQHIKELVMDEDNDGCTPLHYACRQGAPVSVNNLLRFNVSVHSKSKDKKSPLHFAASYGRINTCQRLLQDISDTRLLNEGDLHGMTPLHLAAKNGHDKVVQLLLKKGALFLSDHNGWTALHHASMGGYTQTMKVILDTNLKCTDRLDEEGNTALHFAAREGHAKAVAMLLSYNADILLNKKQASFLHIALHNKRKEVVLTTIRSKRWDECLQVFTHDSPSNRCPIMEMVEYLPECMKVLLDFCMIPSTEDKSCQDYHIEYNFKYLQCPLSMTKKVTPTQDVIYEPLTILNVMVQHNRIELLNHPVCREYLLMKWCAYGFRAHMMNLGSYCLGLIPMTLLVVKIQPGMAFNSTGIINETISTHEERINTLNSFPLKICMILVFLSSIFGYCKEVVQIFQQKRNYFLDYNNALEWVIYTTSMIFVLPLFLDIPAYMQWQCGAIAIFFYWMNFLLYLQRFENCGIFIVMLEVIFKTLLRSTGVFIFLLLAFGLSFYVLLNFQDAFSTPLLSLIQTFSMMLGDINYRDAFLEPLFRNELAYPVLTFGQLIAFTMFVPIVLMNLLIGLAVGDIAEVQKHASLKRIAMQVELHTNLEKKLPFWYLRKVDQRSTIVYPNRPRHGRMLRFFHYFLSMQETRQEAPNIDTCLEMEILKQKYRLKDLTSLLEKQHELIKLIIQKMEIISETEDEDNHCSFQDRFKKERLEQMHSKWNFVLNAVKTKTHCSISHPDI

[4] = target: Transient receptor potential cation channel subfamily A member 1 (Rattus norvegicus, UniProt Q6RI86); assay: Agonist activity at rat TRPA1 expressed in HEK293 cells; type: cell-based
Sequence of Transient receptor potential cation channel subfamily A member 1 (Q6RI86 whole entry): as above

SMILES | IC50 [1] | Activity [2] | Activity [3] | EC50 [4]
CCCCCc1cc(O)c2c(c1)OC(C)(C)[C@@H]1CCC(C)=C[C@@H]21 [DRONABINOL] | 13 µg/mL (≈ 41.5 µM) |  |  | 
CCCCCc1cc(O)c2c(c1)O[C@](C)(CCC=C(C)C)C=C2 |  | Active | Active | 
CCCCCc1cc(O)c2c(c1)O[C@@](C)(CCC=C(C)C)C=C2 |  | Active | Active | 
CCCCCc1cc(O)c2c(c1)OC(C)(CCC=C(C)C)C=C2 (racemic) [CANNABICHROMENE] | 13 µg/mL (≈ 41.5 µM) |  |  | 0.09 µM
